What was measured:
Rv0036c = Rv0036c (Mycobacterium tuberculosis, UniProt P9WM91)
Rv0831c = Rv0831c (Mycobacterium tuberculosis, UniProt O53842)
Rv0941c = Rv0941c (Mycobacterium tuberculosis, UniProt P71568); details: 20 uM probe, lysate in PBS, 37 °C, 1 h; covalent
Rv0282 = Rv0282 (Mycobacterium tuberculosis, UniProt P9WPI3); details: 20 uM probe, lysate in PBS, 37 °C, 1 h; covalent
Rv0282, sequence (P9WPI3 whole entry, looked up): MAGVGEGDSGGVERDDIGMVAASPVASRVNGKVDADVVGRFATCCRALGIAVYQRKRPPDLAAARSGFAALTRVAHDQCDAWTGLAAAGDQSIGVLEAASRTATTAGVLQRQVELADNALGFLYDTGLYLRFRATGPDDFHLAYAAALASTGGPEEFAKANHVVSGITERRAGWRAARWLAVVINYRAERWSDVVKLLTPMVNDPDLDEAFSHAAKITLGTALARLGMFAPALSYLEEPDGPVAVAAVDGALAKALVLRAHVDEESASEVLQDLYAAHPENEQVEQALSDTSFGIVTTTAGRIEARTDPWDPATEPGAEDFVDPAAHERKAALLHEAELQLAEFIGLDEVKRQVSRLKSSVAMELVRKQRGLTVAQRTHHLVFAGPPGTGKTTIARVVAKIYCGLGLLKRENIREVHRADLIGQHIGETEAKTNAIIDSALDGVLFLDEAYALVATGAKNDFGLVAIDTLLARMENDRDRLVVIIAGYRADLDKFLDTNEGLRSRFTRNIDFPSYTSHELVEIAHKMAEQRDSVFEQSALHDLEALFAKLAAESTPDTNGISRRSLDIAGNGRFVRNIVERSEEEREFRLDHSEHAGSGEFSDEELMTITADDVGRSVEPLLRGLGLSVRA

Rv0036c, sequence (P9WM91 whole entry): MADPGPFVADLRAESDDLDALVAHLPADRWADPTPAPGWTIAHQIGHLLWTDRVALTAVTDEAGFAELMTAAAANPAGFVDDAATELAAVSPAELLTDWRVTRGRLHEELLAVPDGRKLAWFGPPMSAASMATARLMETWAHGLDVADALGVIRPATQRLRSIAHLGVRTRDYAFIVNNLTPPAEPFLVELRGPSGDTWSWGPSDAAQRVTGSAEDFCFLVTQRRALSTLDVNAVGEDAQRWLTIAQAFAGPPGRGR

Compound	competition with ATP-ABP labelling, gel fluorescence (Rv0036c)	competition with ATP-ABP labelling, gel fluorescence (Rv0831c)	fold enrichment over control (Rv0941c) [fold]	fold enrichment over negative control (Rv0282) [fold]
Nc1ncnc2c1ncn2[C@@H]1O[C@H](COP(=O)(O)OP(=O)(O)OP(=O)(O)O)[C@@H](O)[C@H]1O [ATP]	ATP and ATPγS competed with probe binding	ATP and ATPγS competed with probe binding		
ATP-ABP			15	4
Nc1ncnc2c1ncn2[C@@H]1O[C@H](COP(=O)(O)OP(=O)(O)OP(O)(O)=S)[C@@H](O)[C@H]1O [ATPγS]	ATP and ATPγS competed with probe binding	ATP and ATPγS competed with probe binding		

From article PMC3558932 (Chemistry & biology, 2013)
